According to patent US20250026721A1, “COMPOUNDS AND METHODS FOR MODULATING RAS-PI3K” (Vividion Therapeutics, Inc., priority 2023, published 2025):

Experiments:
[1] = biological target: T1, PIK3CA_C242 (Homo sapiens, UniProt P42336); assay: Proteomic TE50 (IA-DTB / TMT mass spectrometry) in Jurkat cell lysate; type: binding; details: 1 hour at rt, 7-point dose response
T1 construct: endogenous in cells; host or cells: Jurkat cell lysate
Summary of the method: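 Cysteine engagement was read by targeted TMT MS3 of the IA-DTB-labelled, streptavidin-enriched C242 tryptic peptide. Beforehand, Jurkat lysate was exposed to a 7-point 1:5 compound series for 1 h at rt, then to 200 μM IA-DTB for 1 h. Reporter S/N curves gave TE50.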

[2] = biological target: T2, PIK3CA (Homo sapiens, UniProt P42336); assay: In vitro ELISA target engagement assay for PIK3CA in Jurkat cellular lysate (competition with PIK3CA Biotin Probe); type: binding; details: 1 hour at rt, then 500 nM PIK3CA Biotin Probe, read-out: Elisa Target Engagement Assay (TE50)
T2 construct: endogenous in cells; host or cells: Jurkat cell lysate
T2 sequence (P42336 whole entry): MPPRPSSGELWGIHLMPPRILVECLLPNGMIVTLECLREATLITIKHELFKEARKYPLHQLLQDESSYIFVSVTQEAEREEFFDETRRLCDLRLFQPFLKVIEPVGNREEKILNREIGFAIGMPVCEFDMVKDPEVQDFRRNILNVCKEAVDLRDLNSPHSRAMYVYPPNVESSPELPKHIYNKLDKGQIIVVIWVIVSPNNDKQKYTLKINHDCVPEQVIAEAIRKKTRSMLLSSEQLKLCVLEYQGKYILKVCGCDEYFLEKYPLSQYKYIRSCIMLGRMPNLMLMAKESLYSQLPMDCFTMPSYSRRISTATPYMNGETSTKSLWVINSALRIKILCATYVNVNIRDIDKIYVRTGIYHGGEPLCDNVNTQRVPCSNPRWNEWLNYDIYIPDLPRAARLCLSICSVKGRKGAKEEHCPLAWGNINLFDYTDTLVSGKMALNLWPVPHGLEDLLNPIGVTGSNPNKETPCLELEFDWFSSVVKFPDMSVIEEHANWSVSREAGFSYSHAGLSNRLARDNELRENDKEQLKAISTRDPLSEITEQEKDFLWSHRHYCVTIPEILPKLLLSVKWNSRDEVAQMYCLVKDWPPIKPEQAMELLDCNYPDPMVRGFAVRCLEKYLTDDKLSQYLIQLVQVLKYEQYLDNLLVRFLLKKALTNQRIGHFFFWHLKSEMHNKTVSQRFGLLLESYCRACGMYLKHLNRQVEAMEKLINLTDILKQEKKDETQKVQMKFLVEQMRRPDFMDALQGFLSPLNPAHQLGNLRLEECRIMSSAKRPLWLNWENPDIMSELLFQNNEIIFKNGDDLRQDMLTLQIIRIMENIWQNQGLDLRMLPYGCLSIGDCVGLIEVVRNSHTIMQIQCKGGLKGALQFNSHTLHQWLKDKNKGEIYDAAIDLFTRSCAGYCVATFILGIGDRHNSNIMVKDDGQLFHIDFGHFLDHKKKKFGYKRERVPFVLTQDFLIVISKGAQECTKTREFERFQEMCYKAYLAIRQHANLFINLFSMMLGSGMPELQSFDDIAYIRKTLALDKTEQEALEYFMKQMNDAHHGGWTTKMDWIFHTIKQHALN
T2 sequence (P27986 whole entry partner): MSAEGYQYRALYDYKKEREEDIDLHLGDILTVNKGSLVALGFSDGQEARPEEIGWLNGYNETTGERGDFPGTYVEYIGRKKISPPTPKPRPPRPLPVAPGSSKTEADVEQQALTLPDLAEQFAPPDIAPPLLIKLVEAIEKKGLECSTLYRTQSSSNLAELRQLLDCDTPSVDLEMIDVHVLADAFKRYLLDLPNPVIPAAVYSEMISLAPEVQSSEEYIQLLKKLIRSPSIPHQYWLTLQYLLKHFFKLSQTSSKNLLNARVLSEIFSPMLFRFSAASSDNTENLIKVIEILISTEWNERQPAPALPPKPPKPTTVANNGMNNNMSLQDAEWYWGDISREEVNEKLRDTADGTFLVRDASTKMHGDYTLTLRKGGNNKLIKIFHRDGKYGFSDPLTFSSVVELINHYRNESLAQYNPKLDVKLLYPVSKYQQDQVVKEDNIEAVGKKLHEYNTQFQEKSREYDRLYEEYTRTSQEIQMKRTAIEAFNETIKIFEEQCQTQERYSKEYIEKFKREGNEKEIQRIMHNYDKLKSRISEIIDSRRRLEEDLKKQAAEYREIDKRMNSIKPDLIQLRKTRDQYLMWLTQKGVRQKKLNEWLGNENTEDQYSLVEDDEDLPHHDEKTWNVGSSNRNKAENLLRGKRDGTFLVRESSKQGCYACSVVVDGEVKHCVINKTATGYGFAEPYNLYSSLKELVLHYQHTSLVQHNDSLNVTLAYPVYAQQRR
Summary of the method: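 Competition format in Jurkat lysate: compound (serial dilutions, top 200 μM) for 1 h at rt, then 500 nM final biotinylated PIK3CA probe for 1 h at rt. Sandwich ELISA with capture antibody and Neutravidin-HRP luminescence read-out measured probe-labelled PIK3CA, giving TE50.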

T1 sequence (P42336 whole entry): as the sequence (P42336 whole entry) above
T1 sequence (P27986 whole entry partner): as the sequence (P27986 whole entry partner) above

SMILES | IC50 [1] | IC50 [2]
COc1cc(-c2ccccc2Cl)c(S(=O)(=O)N2CCC(F)(C(=O)N[C@H](C)/C=C\S(C)(=O)=O)CC2)cc1Cl [Compound 29, (R,Z)-1-((2′,4-dichloro-5-methoxy-[1,1′-biphenyl]-2-yl)sulfonyl)-4-fluoro-N-(4-(methylsulfonyl)but-3-en-2-yl)piperidine-4-carboxamide] | 390 nM | 570 nM
COc1ccc(S(=O)(=O)N2CCC(F)(C(=O)N[C@H](C)/C=C\S(C)(=O)=O)CC2)c(-c2c(F)cccc2Cl)c1 [Compound 30, 1-((2′-chloro-6′-fluoro-5-methoxy-[1,1′-biphenyl]-2-yl)sulfonyl)-4-fluoro-N-((R,Z)-4-(methylsulfonyl)but-3-en-2-yl)piperidine-4-carboxamide] | 340 nM | 560 nM
C[C@H](/C=C\S(C)(=O)=O)NC(=O)C1(F)CCN(S(=O)(=O)c2ccc(F)cc2-c2ccccc2Cl)CC1 [Compound 31, (R,Z)-1-((2′-chloro-5-fluoro-[1,1′-biphenyl]-2-yl)sulfonyl)-4-fluoro-N-(4-(methylsulfonyl)but-3-en-2-yl)piperidine-4-carboxamide] | 620 nM | 760 nM
COc1ccc(S(=O)(=O)N2CCC(F)(C(=O)N[C@H](C)/C=C\S(C)(=O)=O)CC2)c(-c2ccccc2Cl)c1Cl [Compound 32, 1-((2′,6-dichloro-5-methoxy-[1,1′-biphenyl]-2-yl)sulfonyl)-4-fluoro-N-((R,Z)-4-(methylsulfonyl)but-3-en-2-yl)piperidine-4-carboxamide] | 820 nM | 930 nM
C[C@H](/C=C\S(C)(=O)=O)NC(=O)C1(F)CCN(S(=O)(=O)c2ccc(OC(F)(F)F)cc2-c2ccccc2Cl)CC1 [Compound 34, (R,Z)-1-((2′-chloro-5-(trifluoromethoxy)-[1,1′-biphenyl]-2-yl)sulfonyl)-4-fluoro-N-(4-(methylsulfonyl)but-3-en-2-yl)piperidine-4-carboxamide] | 700 nM | 550 nM
N#C/C=C/CNC(=O)C1(F)CCN(S(=O)(=O)c2ccc(Br)cc2-c2ccccc2Cl)CC1 [Compound 68, (E)-1-((5-bromo-2′-chloro-[1,1′-biphenyl]-2-yl)sulfonyl)-N-(3-cyanoallyl)-4-fluoropiperidine-4-carboxamide] | 330 nM | 465 nM
CC[C@@H](/C=C\S(C)(=O)=O)NC(=O)C1(F)CCN(S(=O)(=O)c2ccc(Cl)cc2-c2cccc(OC)c2)CC1 [Compound 83, (S,Z)-1-((5-chloro-3′-methoxy-[1,1′-biphenyl]-2-yl)sulfonyl)-4-fluoro-N-(1-(methylsulfonyl)pent-1-en-3-yl)piperidine-4-carboxamide] | 540 nM | 520 nM
CC[C@@H](/C=C\S(C)(=O)=O)NC(=O)C1(F)CCN(S(=O)(=O)c2ccc(Cl)cc2-c2ccccc2)CC1 [Compound 84, (S,Z)-1-((5-chloro-[1,1′-biphenyl]-2-yl)sulfonyl)-4-fluoro-N-(1-(methylsulfonyl)pent-1-en-3-yl)piperidine-4-carboxamide] | 450 nM | 510 nM
COc1ccc(Cl)c(-c2cc(N(C)C)ccc2S(=O)(=O)N2CCC(F)(C(=O)N[C@@H](C)/C=C\S(C)(=O)=O)CC2)c1 [Compound 87, (S,Z)-1-((2′-chloro-5-(dimethylamino)-5′-methoxy-[1,1′-biphenyl]-2-yl)sulfonyl)-4-fluoro-N-(4-(methylsulfonyl)but-3-en-2-yl)piperidine-4-carboxamide] | 400 nM | 390 nM
COc1cccc(-c2cc(N(C)C)ccc2S(=O)(=O)N2CCC(F)(C(=O)N[C@@H](C)/C=C\S(C)(=O)=O)CC2)c1Cl [Compound 90, (S,Z)-1-((2′-chloro-5-(dimethylamino)-3′-methoxy-[1,1′-biphenyl]-2-yl)sulfonyl)-4-fluoro-N-(4-(methylsulfonyl)but-3-en-2-yl)piperidine-4-carboxamide] | 330 nM | 250 nM
C[C@H](/C=C\S(C)(=O)=O)NC(=O)C1(F)CCN(S(=O)(=O)c2ccc(N(C)C)cc2-c2ccccc2)CC1 [Compound 91, (R,Z)-1-((5-(dimethylamino)-[1,1′-biphenyl]-2-yl)sulfonyl)-4-fluoro-N-(4-(methylsulfonyl)but-3-en-2-yl)piperidine-4-carboxamide] | 430 nM | 280 nM
CCOc1ccc(S(=O)(=O)N2CCC(F)(C(=O)N[C@H](C)/C=C\S(C)(=O)=O)CC2)c(-c2ccccc2C)c1 [Compound 102, (R,Z)-1-((5-ethoxy-2′-methyl-[1,1′-biphenyl]-2-yl)sulfonyl)-4-fluoro-N-(4-(methylsulfonyl)but-3-en-2-yl)piperidine-4-carboxamide] | 610 nM | 730 nM
C=C(C)c1ccc(S(=O)(=O)N2CCC(F)(C(=O)N[C@H](C)/C=C\S(C)(=O)=O)CC2)c(-c2ccccc2C)c1 [Compound 110, (R,Z)-4-fluoro-1-((2′-methyl-5-(prop-1-en-2-yl)-[1,1′-biphenyl]-2-yl)sulfonyl)-N-(4-(methylsulfonyl)but-3-en-2-yl)piperidine-4-carboxamide] | 363 nM | 830 nM
CCc1ccc(S(=O)(=O)N2CCC(F)(C(=O)N[C@H](C)/C=C\S(C)(=O)=O)CC2)c(-c2ccccc2)c1 [Compound 112, (R,Z)-1-((5-ethyl-[1,1′-biphenyl]-2-yl)sulfonyl)-4-fluoro-N-(4-(methylsulfonyl)but-3-en-2-yl)piperidine-4-carboxamide] | 660 nM | 780 nM
CC(C)c1ccc(S(=O)(=O)N2CCC(F)(C(=O)N[C@H](C)/C=C\S(C)(=O)=O)CC2)c(-c2ccccc2Cl)c1 [Compound 114, (R,Z)-1-((2′-chloro-5-isopropyl-[1,1′-biphenyl]-2-yl)sulfonyl)-4-fluoro-N-(4-(methylsulfonyl)but-3-en-2-yl)piperidine-4-carboxamide] | 680 nM | 610 nM
Cc1ccccc1-c1cc(C(C)C)ccc1S(=O)(=O)N1CCC(F)(C(=O)N[C@H](C)/C=C\S(C)(=O)=O)CC1 [Compound 115, (R,Z)-4-fluoro-1-((5-isopropyl-2′-methyl-[1,1′-biphenyl]-2-yl)sulfonyl)-N-(4-(methylsulfonyl)but-3-en-2-yl)piperidine-4-carboxamide] | 410 nM | 520 nM

Now those with a lower IC50 [1], led by results:

IC50 [1] | IC50 [2] | SMILES
70 nM | 95 nM | N#C/C=C\CNC(=O)C1(F)CCN(S(=O)(=O)c2ccc(Br)cc2-c2ccccc2Cl)CC1 [Compound 70, (Z)-1-((5-bromo-2′-chloro-[1,1′-biphenyl]-2-yl)sulfonyl)-N-(3-cyanoallyl)-4-fluoropiperidine-4-carboxamide]
86 nM | 79 nM | C[C@@H](/C=C\S(C)(=O)=O)NC(=O)C1(F)CCN(S(=O)(=O)c2ccc(N(C)C)cc2-c2ccccc2)CC1 [Compound 88, (S,Z)-1-((5-(dimethylamino)-[1,1′-biphenyl]-2-yl)sulfonyl)-4-fluoro-N-(4-(methylsulfonyl)but-3-en-2-yl)piperidine-4-carboxamide]
139 nM | 130 nM | C[C@H](/C=C\S(C)(=O)=O)NC(=O)C1(F)CCN(S(=O)(=O)c2ccc(N(C)C)cc2-c2ccccc2Cl)CC1 [Compound 92, (R,Z)-1-((2′-chloro-5-(dimethylamino)-[1,1′-biphenyl]-2-yl)sulfonyl)-4-fluoro-N-(4-(methylsulfonyl)but-3-en-2-yl)piperidine-4-carboxamide]
75.5 nM | 150 nM | Cc1ccccc1-c1cc(N(C)C)ccc1S(=O)(=O)N1CCC(F)(C(=O)N[C@H](C)/C=C\S(C)(=O)=O)CC1 [Compound 93, (R,Z)-1-((5-(dimethylamino)-2′-methyl-[1,1′-biphenyl]-2-yl)sulfonyl)-4-fluoro-N-(4-(methylsulfonyl)but-3-en-2-yl)piperidine-4-carboxamide]
96 nM | 99 nM | CC#Cc1cccc(-c2cc(Cl)ccc2S(=O)(=O)N2CCC(F)(C(=O)N[C@@H](C)/C=C\S(C)(=O)=O)CC2)c1 [Compound 100, (S,Z)-1-((5-chloro-3′-(prop-1-yn-1-yl)-[1,1′-biphenyl]-2-yl)sulfonyl)-4-fluoro-N-(4-(methylsulfonyl)but-3-en-2-yl)piperidine-4-carboxamide]
310 nM | 820 nM | Cc1ccccc1-c1cc(OC2CC2)ccc1S(=O)(=O)N1CCC(F)(C(=O)N[C@H](C)/C=C\S(C)(=O)=O)CC1 [Compound 106, (R,Z)-1-((5-cyclopropoxy-2′-methyl-[1,1′-biphenyl]-2-yl)sulfonyl)-4-fluoro-N-(4-(methylsulfonyl)but-3-en-2-yl)piperidine-4-carboxamide]
320 nM | 200 nM | C=Cc1ccc(S(=O)(=O)N2CCC(F)(C(=O)N[C@H](C)/C=C\S(C)(=O)=O)CC2)c(-c2ccccc2Cl)c1 [Compound 107, (R,Z)-1-((2′-chloro-5-vinyl-[1,1′-biphenyl]-2-yl)sulfonyl)-4-fluoro-N-(4-(methylsulfonyl)but-3-en-2-yl)piperidine-4-carboxamide]
280 nM | 360 nM | C=C(C)c1ccc(S(=O)(=O)N2CCC(F)(C(=O)N[C@H](C)/C=C\S(C)(=O)=O)CC2)c(-c2ccccc2Cl)c1 [Compound 109, (R,Z)-1-((2′-chloro-5-(prop-1-en-2-yl)-[1,1′-biphenyl]-2-yl)sulfonyl)-4-fluoro-N-(4-(methylsulfonyl)but-3-en-2-yl)piperidine-4-carboxamide]
210 nM | 320 nM | CCc1ccc(S(=O)(=O)N2CCC(F)(C(=O)N[C@H](C)/C=C\S(C)(=O)=O)CC2)c(-c2ccccc2Cl)c1 [Compound 111, (R,Z)-1-((2′-chloro-5-ethyl-[1,1′-biphenyl]-2-yl)sulfonyl)-4-fluoro-N-(4-(methylsulfonyl)but-3-en-2-yl)piperidine-4-carboxamide]
